These results are taken from US11192878B2, “Piperidine-2,6-dione derivative and use thereof” (KOREA RESEARCH INSTITUTE OF CHEMICAL TECHNOLOGY, priority 2017, dated 2021).

Counter-ions that a name gives are not always drawn.

For the test, the system named is NCI-H929 cells. The experiment in a line: Cytotoxicity experiment (WST-1). The format is cell-based. The note with it: Homo sapiens, 72 hours, WST-1, absorbance 450 nm. The procedure:
In order to confirm the effect of the compound of the present disclosure on cancer cells and normal cells, the cytotoxicity experiment was conducted as follows.
After seeding NCI-H929 cells on a 96-well plate so as to be 10,000 cells per each well, each compound was treated in a predetermined concentration. In 72 hours, WST-1 reagent was added, and in 1 hour, the absorbance was measured at 450 nm using spectramax spectrophotometer to measure the degree of cell death.
A general note: Tetrazolium assays rely on reduction of a dye to a coloured formazan, in cell work by metabolically active cells.
Broadly, the IC50 is the concentration needed to halve the response being measured. Higher therefore signals weaker potency in that assay. In the case of `O=C1CCC(n2nnc3c([N+](=O)[O-])cccc3c2=O)C(=O)N1` (stereo not drawn) [Chemical formula 21, 3-(8-nitro-4-oxobenzo[d][1,2,3]triazin-3(4H)-yl)piperidine-2,6-dione], the IC50 fell in the range of 10 to 50 µM.
The same measure for `CC(=O)Nc1ccc2nnn(C3CCC(=O)NC3=O)c(=O)c2c1` (stereo not drawn) [Chemical formula 23, N-(3-(2,6-dioxopiperidin-3-yl)-4-oxo-3,4-dihydrobenzo[d][1,2,3]triazin-6-yl)acetamide]: 10 to 50 µM; for `O=C1CCC(n2nnc3cccc([N+](=O)[O-])c3c2=O)C(=O)N1` (stereo not drawn) [Chemical formula 9, 3-(5-nitro-4-oxobenzo[d][1,2,3]triazin-3(4H)-yl)piperidine-2,6-dione]: 10 to 50 µM; for `Cc1cccc2nnn(C3CCC(=O)NC3=O)c(=O)c12` (stereo not drawn) [Chemical formula 11, 3-(5-methyl-4-oxobenzo[d][1,2,3]triazin-3(4H)-yl)piperidine-2,6-dione]: 1 to 10 µM.
With `Nc1cccc2nnn(C3CCC(=O)N(COC(=O)[C@H]4CCCN4)C3=O)c(=O)c12` (stereo partly drawn) [Chemical formula 61, (3-(5-amino-4-oxobenzo[d][1,2,3]triazin-3(4H)-yl)-2,6-dioxopiperidin-1-yl)methyl D-prolinate hydrochloride], the IC50 is under 1 µM.
For the compound `O=C1CCC(n2nnc3cccc(F)c3c2=O)C(=O)N1` (stereo not drawn) [Chemical formula 8, 3-(5-fluoro-4-oxobenzo[d][1,2,3]triazin-3(4H)-yl)piperidine-2,6-dione], the IC50 was in the range of 1 to 10 µM.
The same measure for `O=C1CCC(n2nnc3ccc([N+](=O)[O-])cc3c2=O)C(=O)N1` (stereo not drawn) [Chemical formula 27, 3-(6-nitro-4-oxobenzo[d][1,2,3]triazin-3(4H)-yl)piperidine-2,6-dione]: 10 to 50 µM; for `O=C1CCC(n2nnc3cccc(C(=O)O)c3c2=O)C(=O)N1` (stereo not drawn) [Chemical formula 29, 3-(2,6-dioxopiperidin-3-yl)-4-oxo-3,4-dihydrobenzo[d][1,2,3]triazin-5-carboxylic acid]: 10 to 50 µM.
Take `O=C1CCC(n2nnc3cccc(NC(=O)c4ccccc4)c3c2=O)C(=O)N1` (stereo not drawn) [Chemical formula 56, N-(3-(2,6-dioxopiperidin-3-yl)-4-oxo-3,4-dihydrobenzo[d][1,2,3]triazin-5-yl)benzamide]: the IC50 lay within 10 to 50 µM.
Then `O=C1CCC(n2nnc3ccccc3c2=O)C(=O)N1` (stereo not drawn) [Chemical formula 25, 3-(4-oxobenzo[d][1,2,3]triazin-3(4H)-yl)piperidine-2,6-dione], with 1 to 10 µM; and `CC(C)(C)C(=O)OCN1C(=O)CCC(n2nnc3cccc(N)c3c2=O)C1=O` (stereo not drawn) [Chemical formula 58, (3-(5-amino-4-oxobenzo[d][1,2,3]triazin-3(4H)-yl)-2,6-dioxopiperidin-1-yl)methyl pivalate], with under 1 µM.
The same measure for `COc1ccc2nnn(C3CCC(=O)NC3=O)c(=O)c2c1` (stereo not drawn) [Chemical formula 19, 3-(6-methoxy-4-oxobenzo[d][1,2,3]triazin-3(4H)-yl)piperidine-2,6-dione]: 10 to 50 µM.
In the case of `Nc1cccc2nnn(C3CCC(=O)N(COC(=O)C4CCNCC4)C3=O)c(=O)c12` (stereo not drawn) [Chemical formula 60, (3-(5-amino-4-oxobenzo[d][1,2,3]triazin-3(4H)-yl)-2,6-dioxopiperidin-1-yl)methyl piperidine-4-carboxylate hydrochloride], the IC50 was under 1 µM.
The same measure for `Nc1cccc2nnn(C3CCC(=O)NC3=O)c(=O)c12` (stereo not drawn) [Chemical formula 7, 3-(5-amino-4-oxobenzo[d][1,2,3]triazin-3(4H)-yl)piperidine-2,6-dione]: under 1 µM.
In the case of `O=C1CCC(n2nnc3cc([N+](=O)[O-])ccc3c2=O)C(=O)N1` (stereo not drawn) [Chemical formula 26, 3-(7-nitro-4-oxobenzo[d][1,2,3]triazin-3(4H)-yl)piperidine-2,6-dione], the IC50 lay in the range of 10 to 50 µM.
`CC(=O)Nc1cccc2nnn(C3CCC(=O)NC3=O)c(=O)c12` (stereo not drawn) [Chemical formula 20, N-(3-(2,6-dioxopiperidin-3-yl)-4-oxo-3,4-dihydrobenzo[d][1,2,3]triazin-5-yl)acetamide]: the IC50 was in the range of 10 to 50 µM.
The same measure for `Nc1cccc2nnn(C3CCC(=O)N(COC(=O)c4ccccc4)C3=O)c(=O)c12` (stereo not drawn) [Chemical formula 59, (3-(5-amino-4-oxobenzo[d][1,2,3]triazin-3(4H)-yl)-2,6-dioxopiperidin-1-yl)methyl benzoate]: under 1 µM.
Then `Nc1ccc2nnn(C3CCC(=O)NC3=O)c(=O)c2c1` (stereo not drawn) [Chemical formula 65, 3-(6-amino-4-oxobenzo[d][1,2,3]triazin-3(4H)-yl)piperidine-2,6-dione], with 10 to 50 µM; and `O=C1CCC(n2nnc3ccc(Cl)cc3c2=O)C(=O)N1` (stereo not drawn) [Chemical formula 12, 3-(6-chloro-4-oxobenzo[d][1,2,3]triazin-3(4H)-yl)piperidine-2,6-dione], with 10 to 50 µM.
Then `CC1(n2nnc3cccc(N)c3c2=O)CCC(=O)NC1=O` (stereo not drawn) [Chemical formula 30, 3-(5-amino-4-oxobenzo[d][1,2,3]triazin-3(4H)-yl)-3-methylpiperidine-2,6-dione], with 10 to 50 µM; and `Nc1cccc2ccn(C3CCC(=O)NC3=O)c(=O)c12` (stereo not drawn) [Chemical formula 31, 3-(8-amino-1-oxoisoquinolin-2(1H)-yl)piperidine-2,6-dione], with 10 to 50 µM.
On to `CC[C@H](C)[C@H](N)C(=O)OCN1C(=O)CCC(n2nnc3cccc(N)c3c2=O)C1=O` (stereo partly drawn) [Chemical formula 62, (3-(5-amino-4-oxobenzo[d][1,2,3]triazin-3(4H)-yl)-2,6-dioxopiperidin-1-yl)methyl L-isoleucinate hydrochloride], for which the IC50 is under 1 µM.
`Cc1ccc(NC(=O)NCc2ccc3nnn(C4CCC(=O)NC4=O)c(=O)c3c2)cc1Cl` (stereo not drawn) [Chemical formula 38, 1-(3-chloro-4-methylphenyl)-3-((3-(2,6-dioxopiperidin-3-yl)-4-oxo-3,4-dihydrobenzo[d][1,2,3]triazin-6-yl)methyl)urea]: the IC50 is under 1 µM.
Then `Nc1cccc2c(=O)n(C3CCC(=O)NC3=O)ccc12` (stereo not drawn) [Chemical formula 24, 3-(5-amino-1-oxoisoquinolin-2(1H)-yl)piperidine-2,6-dione], with 10 to 50 µM.
The same measure for `CCCC(=O)OCN1C(=O)CCC(n2nnc3cccc(N)c3c2=O)C1=O` (stereo not drawn) [Chemical formula 63, (3-(5-amino-4-oxobenzo[d][1,2,3]triazin-3(4H)-yl)-2,6-dioxopiperidin-1-yl)methyl butyrate]: under 1 µM; for `O=C1CCC(n2nnc3cccc(O)c3c2=O)C(=O)N1` (stereo not drawn) [Chemical formula 57, 3-(5-hydroxy-4-oxobenzo[d][1,2,3]triazin-3(4H)-yl)piperidine-2,6-dione]: under 1 µM.
In turn, `Cc1ccc(NC(=O)NCc2ccc3c(=O)n(C4CCC(=O)NC4=O)nnc3c2)cc1Cl` (stereo not drawn) [Chemical formula 37, 1-(3-chloro-4-methylphenyl)-3-((3-(2,6-dioxopiperidin-3-yl)-4-oxo-3,4-dihydrobenzo[d][1,2,3]triazin-7-yl)methyl)urea] returned a half-maximal inhibitory concentration (IC50) of under 1 µM.
